The values below come from US20110306636A1, “OXAZOLE PYRIDINE DERIVATIVES USEFUL AS S1P1 RECEPTOR AGONISTS” (Merck Serono SA, priority 2009, published 2011).

Counter-ions that a name gives are not always drawn. Like-named read-outs stand apart in the source and are kept apart here.

In assay [1] the target is T1, human S1P1 Receptor fused to the green fluorescent protein (EGFP) (Homo sapiens, UniProt P21453).
T1 construct: host or cells: U2OS (human bone osteosarcoma epithelial cells), CMV promoter, geneticin selection
Description: Internalization of S1P1 in S1P1-U2OS cells by cell imaging analysis. It counts as cell-based. Particulars: 1 hour incubation, 384-well. How it is done: Cellular Functional Assays: Internalization of Sphingosine-1-Phosphate Receptor 1 (S1P1) in a Human Cell Line (U2OS) in a 384-Well Format Using a Cell Imaging Analysis.
The S1P1 internalization assay was performed in 384 well plates (Corning® 384 black with clear bottom 3712) using S1P1-U2OS cells from BioImage (C039A), a human epithelial cell line (Human Bone Osteosarcoma Epithelial Cells). These cells expressed the human S1P1 Receptor fused to the green fluorescent protein (EGFP). A standard CMV promoter (cytomegalovirus promoter) controls the expression of S1P1-EGFP and continuous expression was maintained by addition of geneticin to the culture medium.
S1P1 Receptor desensitization induced the internalization of the membrane-localized S1P1-EGFP fusion protein to endosomes, which can be monitored by cell imaging analysis.
The cells are plated in low serum medium (Dulbecco's Modified Eagle Medium (DMEM) with Glutamax-1 and high glucose, 1% Penicillin/Streptomycin, 1% Fetal Calf Serum (FCS), 0.5 mg/ml Geneticin) overnight.
The next day, S1P1-U2OS cells are incubated in 20 μl serum free medium (DMEM with Glutamax-1 and high glucose, 0.1% of fatty-acid free Bovin Serum Albumin (BSA), 10 mM, N′-2-Hydroxyethylpiperazine-N′-2 ethanesulphonic acid (HEPES) 1M) for 2 hours at 37° C./5% CO2.
The cells are then treated with 4 μl compounds/agonists (6×/3% DMSO) for a total volume of 24 μl, and plates are incubated for 1 hour at 37° C./5% CO2.
S1P1-U2OS cells are fixed with 25 μl Paraformaldehyde 8% and stained with Hoechst 33345 dye (1:1000) for 20 minutes.
They were then washed 3 times with Phosphate Buffered Saline (PBS) and plates are sealed.
The internalization of the receptor S1P1-EGFP is measured on Cellomics by calculating the “spot count per object” (“object” corresponds to nuclear and “spot” corresponds to S1P1-EGFP receptor). Internalization data were observed thanks to vHCS View and analyzed using Genedata® software.

The target of assay [2] is S1P3 (Homo sapiens, UniProt Q99500). As to the kind of experiment: Receptor binding assay, [33P]sphingosine 1-phosphate competition, S1P3. The protocol:
(§1) Membranes Preparation: Membranes were prepared from CHO cells expressing S1P1 or S1P3 for use in ligand and 35S-GTPγS binding studies. Cells were suspended in 50 mM TRIS, pH 7.4, 2 mM EDTA, 250 mM Sucrose (buffer A) and 1× Complete protease inhibitor cocktail (Roche), and disrupted at 4° C. by N2 decompression using a cell disruption bomb (Parr Instrument). Following centrifugation at 1000 RPM for 10 min at 4° C., the supernatant was diluted (2×) in buffer A and centrifuged again at 19000 RPM for 75 min at 4° C. The pellet was then suspended in 10 mM HEPES, pH 7.4, 1 mM EDTA, 250 mM Sucrose (Buffer B), and 1× Complete EDTA-free protease inhibitor cocktail and homogenized using a potter. Membranes were flash frozen in liquid N2 and stored at −80° C.
(§2) Receptor binding assay: [33P]sphingosine 1-phosphate (3000 Ci/mmol; American Radiolabeled Chemicals, Inc.) was added to test compounds in 20% DMSO by competition. Membranes and WGA SPA beads (GE Healthcare) were added to give a final volume of 100 μl in 96-well plates or 50 μl in 384-well plates with assay concentrations of 30 pM or 15 pM [33P]sphingosine 1-phosphate (respectively for S1P1 or S1P3), 50 mM HEPES, pH 7.5, 5 mM MgCl2, 100 mM NaCl, 0.4% fatty acid-free BSA, 1-5 μg/well of proteins in 96-well plates vs 0.6-1 μg/well of proteins in 384-well plates and 100 μg/well of WGA SPA beads in 96-well plates vs 75 μg/well of WGA SPA beads in 384-well plates. Binding was performed for 60 min at RT on a shaker and bound radioactivity was measured on a PerkinElmer 1450 MicroBeta counter. Triplicate samples were averaged and normalized as purcentage of inhibition relative to total binding (only DMSO in well) and non specific binding (1000-fold excess of unlabeled S1P). Binding data were analyzed using the GraphPad Prism program or Genedata software.

Assay [3] addresses S1P1 (Homo sapiens, UniProt P21453). As to the kind of experiment: Receptor binding assay, [33P]sphingosine 1-phosphate competition, S1P1. The protocol: as §1, §2
Where [4] appears, read: 384 well-plate, read-out: S1P3 binding IC50 (M) (384 well-plate).
Where [5] appears, read: 384 well-plate, read-out: S1P1 binding IC50 (M) (384 well-plate).
Setting [6] is: 96 well-plate, read-out: S1P1 binding IC50 (M) (96 well-plate).
Setting [7] is: 96 well-plate, read-out: S1P3 binding IC50 (M) (96 well-plate).

S1P3, sequence (Q99500 whole entry, species assumed): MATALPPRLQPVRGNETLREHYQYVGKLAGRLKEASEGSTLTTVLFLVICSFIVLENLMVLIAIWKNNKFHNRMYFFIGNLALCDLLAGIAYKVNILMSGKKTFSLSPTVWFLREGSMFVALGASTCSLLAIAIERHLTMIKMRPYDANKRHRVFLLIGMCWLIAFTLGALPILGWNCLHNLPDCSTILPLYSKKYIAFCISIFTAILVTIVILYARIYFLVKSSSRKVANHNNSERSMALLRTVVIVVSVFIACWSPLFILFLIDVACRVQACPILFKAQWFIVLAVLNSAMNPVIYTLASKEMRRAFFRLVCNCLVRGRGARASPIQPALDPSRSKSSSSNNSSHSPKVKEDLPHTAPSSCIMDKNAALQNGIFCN
T1 sequence (P21453 with tags, fused parts or gaps): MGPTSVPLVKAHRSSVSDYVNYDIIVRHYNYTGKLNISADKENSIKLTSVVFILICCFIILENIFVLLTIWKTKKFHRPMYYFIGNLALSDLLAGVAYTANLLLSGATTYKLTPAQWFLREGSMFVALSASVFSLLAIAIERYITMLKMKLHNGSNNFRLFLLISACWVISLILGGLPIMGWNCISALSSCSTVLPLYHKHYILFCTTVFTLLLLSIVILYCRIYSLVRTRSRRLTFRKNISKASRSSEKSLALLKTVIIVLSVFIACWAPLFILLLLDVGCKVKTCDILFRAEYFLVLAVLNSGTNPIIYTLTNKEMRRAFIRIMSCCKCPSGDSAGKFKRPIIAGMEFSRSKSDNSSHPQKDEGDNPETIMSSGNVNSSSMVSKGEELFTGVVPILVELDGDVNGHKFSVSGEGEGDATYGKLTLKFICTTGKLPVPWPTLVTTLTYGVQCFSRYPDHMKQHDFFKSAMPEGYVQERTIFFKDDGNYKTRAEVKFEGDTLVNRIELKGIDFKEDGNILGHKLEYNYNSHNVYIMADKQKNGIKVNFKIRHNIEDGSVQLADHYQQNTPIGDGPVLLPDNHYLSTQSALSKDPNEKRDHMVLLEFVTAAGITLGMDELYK
S1P1, sequence (P21453 whole entry, species assumed): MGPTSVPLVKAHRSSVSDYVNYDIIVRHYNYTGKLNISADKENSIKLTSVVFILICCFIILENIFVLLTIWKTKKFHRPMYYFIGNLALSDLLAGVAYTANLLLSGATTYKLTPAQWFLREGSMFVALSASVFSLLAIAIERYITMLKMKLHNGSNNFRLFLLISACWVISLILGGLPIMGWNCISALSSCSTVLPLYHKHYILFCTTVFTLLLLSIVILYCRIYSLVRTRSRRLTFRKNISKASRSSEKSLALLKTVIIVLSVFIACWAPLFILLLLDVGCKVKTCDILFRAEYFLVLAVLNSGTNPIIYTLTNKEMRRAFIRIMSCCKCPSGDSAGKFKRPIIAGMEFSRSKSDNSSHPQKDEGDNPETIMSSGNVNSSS

As to `Cc1ccccc1-c1ccc(-c2nc(-c3ccc(CN(C)CC(=O)O)nc3)no2)cc1C(F)(F)F` [Example 74, 2-(methyl((5-(5-(2′-methyl-2-(trifluoromethyl)biphenyl-4-yl)-1,2,4-oxadiazol-3-yl)pyridin-2-yl)methyl)amino)acetic acid], the 50% effective concentration (EC50) in assay [1] was 17.9 nM. The IC50 in assay [2] (setting [4]) worked out at 2.88e-06 M; in assay [3] (setting [5]), 7.83e-09 M.
Molecule `Cc1cc(-c2nc(-c3ccc(CN(C)CC(=O)O)nc3)no2)ccc1-c1ccccc1C(F)(F)F` [Example 81, 2-(methyl((5-(5-(2-methyl-2′-(trifluoromethyl)biphenyl-4-yl)-1,2,4-oxadiazol-3-yl)pyridin-2-yl)methyl)amino)acetic acid] returned an EC50 in assay [1] of 170 nM. Moreover, the half-maximal inhibitory concentration (IC50) in assay [3] (setting [5]) is 2.5e-08 M.
Regarding `COCc1cc(-c2nc(-c3cnc(NCCO)c(Cl)c3)no2)ccc1-c1ccccc1F` [Example 62, 2-[(3-chloro-5-{5-[2′-fluoro-2-(methoxymethyl)biphenyl-4-yl]-1,2,4-oxadiazol-3-yl}pyridin-2-yl)amino]ethanol], the half-maximal effective concentration (EC50) in assay [1] stood at 90.8 nM. For the same molecule, the IC50 in assay [3] (setting [6]) is 3.1e-09 M; in assay [3] (setting [5]) it was 7.54e-09 M.
Molecule `COCc1cc(-c2nc(-c3ccc(Cl)nc3)no2)ccc1-c1ccccc1C` [Example 40, 2-chloro-5-{5-[2-(methoxymethyl)-2′-methylbiphenyl-4-yl]-1,2,4-oxadiazol-3-yl}pyridine] yielded a concentration giving a half-maximal response (EC50) in assay [1] of 307 nM. In addition, the IC50 in assay [3] (setting [6]) was 5.49e-08 M.
The molecule `COCc1cc(-c2nc(-c3cnc(N)c(Cl)c3)no2)ccc1-c1ccccc1F` [Example 46, 3-chloro-5-{5-[2′-fluoro-2-(methoxymethyl)biphenyl-4-yl]-1,2,4-oxadiazol-3-yl}pyridin-2-amine] displayed a concentration for a half-maximal effect (EC50) in assay [1] of 59.3 nM. Also, the IC50 in assay [2] (setting [7]) is 7.21e-06 M; in assay [3] (setting [6]), 3.31e-09 M; in assay [3] (setting [5]), 4.42e-08 M.
For `COCc1cc(-c2nc(-c3ccc(NCC(O)CO)nc3)no2)ccc1-c1ccccc1C` (centres unmarked) [Example 45, 3-[(5-{5-[2-(methoxymethyl)-2′-methylbiphenyl-4-yl]-1,2,4-oxadiazol-3-yl}pyridin-2-yl)amino]propane-1,2-diol, hydrochloride salt], a half-maximal response in assay [1] (EC50) required 22.4 nM. Also, the 50% inhibitory concentration (IC50) was found to be 9.31e-06 M in assay [2] (setting [7]), 7.94e-06 M in assay [2] (setting [4]), 2.88e-09 M in assay [3] (setting [6]) and 1.4e-08 M in assay [3] (setting [5]).
Molecule `COCc1cc(-c2nc(-c3ccc(NCCCO)nc3)no2)ccc1-c1ccccc1C` [Example 41, 3-[(5-{5-[2-(methoxymethyl)-2′-methylbiphenyl-4-yl]-1,2,4-oxadiazol-3-yl}pyridin-2-yl)amino]propan-1-ol] yielded a concentration for a half-maximal effect (EC50) in assay [1] of 84.2 nM. Besides, the IC50 in assay [3] (setting [6]) was 6.72e-09 M; in assay [3] (setting [5]) it was 1.72e-08 M.
`CC1CCCCN1c1ccc(-c2nc(-c3ccnc(CN(C)CC(=O)O)c3)no2)cc1C(F)(F)F` (centres unmarked) [Example 66, 2-(methyl((4-(5-(4-(2-methylpiperidin-1-yl)-3-(trifluoromethyl)phenyl)-1,2,4-oxadiazol-3-yl)pyridin-2-yl)methyl)amino)acetic acid] showed an EC50 in assay [1] of 14.5 nM. Further, the concentration for half-maximal inhibition (IC50) in assay [2] (setting [7]) came to 7.44e-07 M; in assay [2] (setting [4]) it was 1.38e-06 M; in assay [3] (setting [6]) it was 3.3e-09 M; in assay [3] (setting [5]), 8.68e-09 M.
Molecule `COCc1cc(-c2nc(-c3ccc(NCCO)nc3)no2)ccc1-c1ccccc1Cl` [Example 49, 2-[(5-{5-[2′-chloro-2-(methoxymethyl)biphenyl-4-yl]-1,2,4-oxadiazol-3-yl}pyridin-2-yl)amino]ethanol] came in with an EC50 in assay [1] of 61.5 nM. The values for the IC50 in assay [3] (setting [6]) and in assay [3] (setting [5]) were 3.71e-09 M and 2.4e-08 M, respectively.
On to `Cc1ccccc1-c1ccc(-c2nc(-c3cnc(NCCC(=O)O)c(Cl)c3)no2)cc1C` [Example 73, N-{3-chloro-5-[5-(2,2′-dimethylbiphenyl-4-yl)-1,2,4-oxadiazol-3-yl]pyridin-2-yl}-beta-alanine, hydrochloride salt], for which the 50% effective concentration (EC50) in assay [1] worked out at 173 nM. Moreover, in assay [3] (setting [5]), the half-inhibitory concentration (IC50) stood at 1.47e-08 M.
Consider `Cc1ccccc1-c1ccc(-c2nc(-c3cnc(NCCC(=O)O)c(Cl)c3)no2)cc1C(F)(F)F` [Example 61, N-(3-chloro-5-{5-[2′-methyl-2-(trifluoromethyl)biphenyl-4-yl]-1,2,4-oxadiazol-3-yl}pyridin-2-yl)-beta-alanine, hydrochloride salt], for which the concentration for a half-maximal effect (EC50) in assay [1] was 198 nM. Also, the IC50 was 5.28e-09 M in assay [3] (setting [6]) and 9.48e-09 M in assay [3] (setting [5]).
Molecule `COCc1cc(-c2nc(-c3cnc(N)c(Cl)c3)no2)ccc1N1CCCCC1C` (centres unmarked) [Example 42, 3-chloro-5-{5-[3-(methoxymethyl)-4-(2-methylpiperidin-1-yl)phenyl]-1,2,4-oxadiazol-3-yl}pyridin-2-amine] had an EC50 in assay [1] of 47.9 nM. For the same molecule, in assay [3] (setting [6]), the IC50 is 2.89e-09 M.
With `COCc1cc(-c2nc(-c3cnc(N[C@H]4CCC[C@H]4C(=O)O)c(Cl)c3)no2)ccc1-c1ccccc1C` (relative stereo) [Example 84, cis-2-(3-chloro-5-(5-(2-(methoxymethyl)-2′-methylbiphenyl-4-yl)-1,2,4-oxadiazol-3-yl)pyridin-2-ylamino)cyclopentanecarboxylic acid], in assay [1], the EC50 worked out at 427 nM. The half-inhibitory concentration (IC50) in assay [3] (setting [6]) came out at 1.35e-08 M.
The molecule `Cc1cc(-c2nc(-c3ccnc(CN(C)CC(=O)O)c3)no2)ccc1-c1ccccc1C(F)(F)F` [Example 80, 2-(methyl((4-(5-(2-methyl-2′-(trifluoromethyl)biphenyl-4-yl)-1,2,4-oxadiazol-3-yl)pyridin-2-yl)methyl)amino)acetic acid] registered an EC50 in assay [1] of 93.6 nM. Further, the IC50 in assay [3] (setting [5]) amounted to 2.76e-08 M.
With `COCCCNc1ncc(-c2noc(-c3ccc(-c4ccccc4C)c(COC)c3)n2)cc1Cl` [Example 82, 3-chloro-5-(5-(2-(methoxymethyl)-2′-methylbiphenyl-4-yl)-1,2,4-oxadiazol-3-yl)-N-(3-methoxypropyl)pyridin-2-amine], the half-maximal effective concentration (EC50) in assay [1] is 128 nM. In assay [3] (setting [5]), the half-maximal inhibitory concentration (IC50) came to 4.56e-08 M.
Molecule `COCc1cc(-c2nc(-c3ccc(NCC(C)O)nc3)no2)ccc1-c1ccccc1C` (centres unmarked) [Example 44, 1-[(5-{5-[2-(methoxymethyl)-2′-methylbiphenyl-4-yl]-1,2,4-oxadiazol-3-yl}pyridin-2-yl)amino]propan-2-ol] showed an EC50 in assay [1] of 56 nM. For the same molecule, the IC50 in assay [3] (setting [6]) came to 4.22e-09 M; in assay [3] (setting [5]) it was 3.03e-08 M.
In turn, `Cc1cc(-c2nc(-c3cnc(NCCC(=O)O)c(Cl)c3)no2)ccc1-c1ccccc1C(F)(F)F` [Example 70, N-(3-chloro-5-{5-[2-methyl-2′-(trifluoromethyl)biphenyl-4-yl]-1,2,4-oxadiazol-3-yl}pyridin-2-yl)-beta-alanine, hydrochloride salt] registered a 50% effective concentration (EC50) in assay [1] of 93.4 nM. Also, the 50% inhibitory concentration (IC50) in assay [3] (setting [5]) was 1.72e-08 M.
`COCc1cc(-c2nc(-c3cnc(NCCCO)c(Cl)c3)no2)ccc1-c1ccccc1C` [Example 83, 3-(3-chloro-5-(5-(2-(methoxymethyl)-2′-methylbiphenyl-4-yl)-1,2,4-oxadiazol-3-yl)pyridin-2-ylamino)propan-1-ol] came in with an EC50 in assay [1] of 46.7 nM. In addition, the IC50 in assay [3] (setting [6]) is 2.9e-09 M.

As usually defined, the EC50 is the concentration at which the effect is half-maximal. A lower EC50 goes with greater potency. Usually IC50 stands for the midpoint of a concentration-inhibition curve.
